Measured values published in article PMC6539495, “Anti-Cancer Activity of Novel Dihydrotestosterone-Derived Ring A-Condensed Pyrazoles on Androgen Non-Responsive Prostate Cancer Cell Lines” (International Journal of Molecular Sciences, 2019).

Experiments:
HeLa cells = assay: MTT cell viability assay on HeLa cervical cancer cells; type: cell-based, human; details: 72 hours; for IC50: ± SD
Protocol: (§1) HeLa, MCF-7 and MDA-MB-231 cells were obtained from Sigma-Aldrich and maintained as reported previously. MRC-5, PC-3, DU 145 cells were purchased from American Type Culture Collection (ATCC, Manassas, VA, USA). PC-3 and DU 145 were maintained in RPMI medium (Sigma-Aldrich) whereas MRC-5 cells were maintained in DMEM medium (Sigma-Aldrich). All media were complemented with 10% Fetal bovine serum (FBS, Sigma-Aldrich) 2 mM L-glutamine, 0.01% streptomycin and 0.005% ampicillin (Sigma-Aldrich). Cells were cultured under standard conditions in a 37 °C incubator containing 5% CO2 in 95% humidity.
(§2) Each test compound was dissolved in cell culture grade DMSO (Molar Chemicals, Halásztelek, Hungary) in a final concentration of […]. Antiproliferative action of the synthesized steroids was investigated by MTT assay. An amount of 5000 cells/well were seeded into 96 well plates. Twenty-four hours post seeding, all cell lines were treated with each compound in 10 and 30 μM concentrations for 72 hours. […] After 72 hours, cells were washed with PBS and incubated with culture medium containing 0.5 mg/mL MTT (3-(4, 5-dimethylthiazolyl-2)-2,5-diphenyltetrazolium bromide) reagent (SERVA, GmbH, Heidelberg, Germany) for an hour at 37 °C. Formazan crystals were solubilized in DMSO and extinction was measured at 570 nm using a Synergy HTX plate reader (BioTech-Hungary, Budapest, Hungary). MTT assays were performed at least three times using four independent biological replicates. Data were normalized to solvent controls and the graphical representation of the obtained data as well as the calculation of IC50 values were carried out by GraphPad Prism 7 software (GraphPad Software; San Diego, CA, USA).

MCF-7 cells = assay: MTT cell viability assay on MCF-7 breast cancer cells; type: cell-based, human; details: 72 hours; for IC50: ± SD
Protocol: as §1, §2

MRC-5 cells = assay: MTT cell viability assay on non-cancerous MRC-5 fibroblasts; type: cell-based; details: 72 hours, MTT; for IC50: ± SD
Protocol: as §1, §2

DU 145 cells = assay: MTT cell viability assay on DU 145 prostate cancer cells; type: cell-based, human; details: 72 hours; for IC50: ± SD
Protocol: as §1, §2

MDA-MB-231 cells = assay: MTT cell viability assay on MDA-MB-231 breast cancer cells; type: cell-based, human; details: 72 hours; for IC50: ± SD
Protocol: as §1, §2

PC-3 cells = assay: MTT cell viability assay on PC-3 prostate cancer cells; type: cell-based, human; details: for Mean values (%) of primary growth inhibitory screen (viability in %), PC-3 / IC50: 72 hours, MTT; for antiproliferative potency against PC-3 prostate cancer cells compared to MRC-5 non-cancerous fibroblasts: primary screen; for IC50: ± SD
Protocol: as §1, §2

SMILES | Mean values (%) of primary growth inhibitory screen (viability in %), HeLa (HeLa cells; 10 µM) | Mean values (%) of primary growth inhibitory screen (viability in %), HeLa (HeLa cells; 30 µM) | IC50 (HeLa cells) | Mean values (%) of primary growth inhibitory screen (viability in %), MCF-7 (MCF-7 cells; 10 µM) | Mean values (%) of primary growth inhibitory screen (viability in %), MCF-7 (MCF-7 cells; 30 µM) | IC50 (MCF-7 cells) | Mean values (%) of primary growth inhibitory screen (viability in %), MRC-5 (MRC-5 cells; 10 µM) | Mean values (%) of primary growth inhibitory screen (viability in %), MRC-5 (MRC-5 cells; 30 µM) | IC50 (MRC-5 cells) | Mean values (%) of primary growth inhibitory screen (viability in %), DU 145 (DU 145 cells; 10 µM) | Mean values (%) of primary growth inhibitory screen (viability in %), DU 145 (DU 145 cells; 30 µM) | IC50 (DU 145 cells) | Mean values (%) of primary growth inhibitory screen (viability in %), MDA-MB-231 (MDA-MB-231 cells; 10 µM) | Mean values (%) of primary growth inhibitory screen (viability in %), MDA-MB-231 (MDA-MB-231 cells; 30 µM) | IC50 (MDA-MB-231 cells) | Mean values (%) of primary growth inhibitory screen (viability in %), PC-3 (PC-3 cells; 10 µM) | antiproliferative potency against PC-3 prostate cancer cells compared to MRC-5 non-cancerous fibroblasts (PC-3 cells; 10 µM) | Mean values (%) of primary growth inhibitory screen (viability in %), PC-3 (PC-3 cells; 30 µM) | IC50 (PC-3 cells) | antiproliferative potency against PC-3 prostate cancer cells compared to MRC-5 non-cancerous fibroblasts (PC-3 cells; 30 µM)
Cc1c2c(nn1-c1ccc(Cl)cc1)C[C@@H]1CC[C@@H]3[C@H](CC[C@]4(C)[C@@H](O)CC[C@@H]34)[C@@]1(C)C2 [4g, 17β-Hydroxy-1′-(4″-chlorophenyl)-5′-methylpyrazolo[3′,4′:3,2]-5α-androstane] | 40.1% | 4.7% | 7.2 ± 0.4 µM | 48.5% | 5.3% | 4.4 ± 0.3 µM | 80.1% | 1.1% | 15.6 ± 1.4 µM | 74.8% | 1.4% | 14.2 ± 1.3 µM | 78.4% | 5.3% | 12.6 ± 1.5 µM | 44.6% | significantly higher | 3.0% | 7.7 ± 1.2 µM | –
Cc1c2c(nn1-c1ccc(F)cc1)C[C@@H]1CC[C@@H]3[C@H](CC[C@]4(C)C(=O)CC[C@@H]34)[C@@]1(C)C2 [5f, 1′-(4″-Fluorophenyl)-5′-methylpyrazolo[3′,4′:3,2]-5α-androst-17-one] | 40.5% | 50.5% | – | 72.6% | 30.6% | – | 83.9% | 66.1% | – | 74.9% | 50.7% | – | 82.3% | 66.0% | – | 54.3% | significantly higher | 17.6% | – | significantly higher
Cc1c2c(nn1-c1ccc(C#N)cc1)C[C@@H]1CC[C@@H]3[C@H](CC[C@]4(C)[C@@H](O)CC[C@@H]34)[C@@]1(C)C2 [4i, 17β-Hydroxy-1′-(4″-cyanophenyl)-5′-methylpyrazolo[3′,4′:3,2]-5α-androstane] | 62.9% | 72.5% | – | 53.6% | 50.4% | – | 100.3% | 97.4% | – | 104.9% | 105.7% | – | 93.0% | 89.1% | – | 56.6% | significantly higher | 53.3% | – | significantly higher
Cc1c2c(nn1-c1ccc(Cl)cc1)C[C@@H]1CC[C@@H]3[C@H](CC[C@]4(C)C(=O)CC[C@@H]34)[C@@]1(C)C2 [5g, 1′-(4″-Chlorophenyl)-5′-methylpyrazolo[3′,4′:3,2]-5α-androst-17-one] | 38.7% | 39.0% | – | 56.3% | 28.0% | – | 94.4% | 18.1% | – | 73.7% | 23.2% | – | 65.7% | 65.1% | – | 54.7% | significantly higher | 11.8% | – | –
Cc1ccccc1-n1nc2c(c1C)C[C@@]1(C)[C@@H](CC[C@@H]3[C@@H]1CC[C@]1(C)[C@@H](O)CC[C@@H]31)C2 [4b, 17β-Hydroxy-1′-(2″-tolyl)-5′-methylpyrazolo[3′,4′:3,2]-5α-androstane] | 36.0% | 34.1% | – | 39.1% | 32.4% | – | 72.9% | 64.2% | – | 61.1% | 48.3% | – | 69.0% | 64.0% | – | 67.5% | significantly higher | 54.7% | – | –
Cc1ccc(-n2nc3c(c2C)C[C@@]2(C)[C@@H](CC[C@@H]4[C@@H]2CC[C@]2(C)[C@@H](O)CC[C@@H]42)C3)c(C)c1 [4d, 17β-Hydroxy-1′-(2″,4″-dimethylphenyl)-5′-methylpyrazolo[3′,4′:3,2]-5α-androstane] | 65.6% | 56.1% | – | 74.5% | 10.5% | – | 78.9% | 0.8% | – | 70.2% | 2.3% | – | 92.0% | 47.9% | – | 53.4% | – | 3.6% | – | –
Cc1c2c(nn1-c1ccc([N+](=O)[O-])cc1)C[C@@H]1CC[C@@H]3[C@H](CC[C@]4(C)C(=O)CC[C@@H]34)[C@@]1(C)C2 [5j, 1′-(4″-Nitrophenyl)-5′-methylpyrazolo[3′,4′:3,2]-5α-androst-17-one] | 47.4% | 29.4% | 10.4 ± 0.1 µM | 46.5% | 14.4% | 11.3 ± 2.8 µM | 94.8% | 44.6% | 25.5 ± 2.3 µM | 73.0% | 42.8% | 13.5 ± 1.1 µM | 83.5% | 71.7% | > 30 µM | 36.8% | significantly higher | 16.0% | 6.7 ± 1.1 µM | significantly higher
Cc1ccccc1-n1nc2c(c1C)C[C@@]1(C)[C@@H](CC[C@@H]3[C@@H]1CC[C@]1(C)C(=O)CC[C@@H]31)C2 [5b, 1′-(2″-Tolyl)-5′-methylpyrazolo[3′,4′:3,2]-5α-androst-17-one] | 65.5% | 66.8% | – | 59.3% | 63.6% | – | 93.2% | 66.2% | – | 82.3% | 58.4% | – | 83.0% | 76.9% | – | 62.3% | – | 43.2% | – | significantly higher
